#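 Protocol summary: plate cells (96-well), add compound at 5 concentrations, incubate 48 h, interpolate endpoints linearly. Here, GI50 denotes the concentration required for 50% inhibition of growth.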 Activity calls are given as the source filed them. No stated cut-off is given here; in the data, active = GI50 up to about 1.1 µM and inactive = higher. Where a SMILES comes first, the peptide text is derived from it. [ ]: non-standard residue; d: D form. ξ: configuration not given here. ξThz(5,5-Me2) = CC1(C)SCNC1C(=O)O
# How the values were obtained:
# Assay in all cases: NCI-60 cell line screen, 48 h
# [1] = tested on: HOP-92
# [2] = tested on: HOP-62
# [3] = tested on: IGROV-1
# [4] = tested on: COLO 205
# [5] = tested on: UACC-62
# [6] = tested on: UACC-257
# [7] = tested on: TK-10
# [8] = tested on: MDA-MB-231
# [9] = tested on: ACHN
# [10] = tested on: T47D
# [11] = tested on: OVCAR-4
# [12] = tested on: CAKI-1
# [13] = tested on: OVCAR-5
# [14] = tested on: MCF7
# [15] = tested on: SNB-75
# [16] = tested on: SNB-19
# [17] = tested on: 786-0
# [18] = tested on: SR
# [19] = tested on: BT-549
SMILES,GI50 [1],GI50 [2],GI50 [3],GI50 [4],GI50 [5],GI50 [6],GI50 [7],GI50 [8],GI50 [9],GI50 [10],GI50 [11],GI50 [12],GI50 [13],GI50 [14],GI50 [15],GI50 [16],GI50 [17],GI50 [18],GI50 [19]
CC1SCc2nc3ccccc3n21 (stereo not given),> 100 µM (inactive),> 100 µM (inactive),> 100 µM (inactive),> 100 µM (inactive),> 100 µM (inactive),> 100 µM (inactive),> 100 µM (inactive),> 100 µM (inactive),> 100 µM (inactive),> 100 µM (inactive),> 100 µM (inactive),> 100 µM (inactive),> 100 µM (inactive),> 100 µM (inactive),0.284 µM (active),> 100 µM (inactive),> 100 µM (inactive),,
CC(=O)N(O)c1ccc(-c2nc3ccccc3s2)cc1,64.4 µM (inactive),42.1 µM (inactive),32.9 µM (inactive),> 100 µM (inactive),> 100 µM (inactive),> 100 µM (inactive),80.7 µM (inactive),49.7 µM (inactive),47.5 µM (inactive),32.9 µM (inactive),28.2 µM (inactive),95.1 µM (inactive),> 100 µM (inactive),,33 µM (inactive),60 µM (inactive),55.1 µM (inactive),> 100 µM (inactive),
CN/N=C(/C=C/c1ccccc1)C(C)C,,> 100 µM (inactive),> 100 µM (inactive),> 100 µM (inactive),> 100 µM (inactive),> 100 µM (inactive),> 100 µM (inactive),,> 100 µM (inactive),86.3 µM (inactive),> 100 µM (inactive),> 100 µM (inactive),> 100 µM (inactive),> 100 µM (inactive),> 100 µM (inactive),> 100 µM (inactive),> 100 µM (inactive),> 100 µM (inactive),> 100 µM (inactive)
O=C1C2CCCC2N1Cc1ccccc1 (stereo not given),> 100 µM (inactive),> 100 µM (inactive),> 100 µM (inactive),> 100 µM (inactive),> 100 µM (inactive),> 100 µM (inactive),> 100 µM (inactive),,> 100 µM (inactive),> 100 µM (inactive),23.3 µM (inactive),> 100 µM (inactive),> 100 µM (inactive),> 100 µM (inactive),49.5 µM (inactive),,> 100 µM (inactive),,
"CSCC[C@H](NC(=O)[C@H](CC(C)C)NC(=O)[C@H](Cc1c[nH]cn1)NC(=O)CNC(=O)C1N(C(=O)[C@@H](C)NC(=O)[C@H](Cc2c[nH]c3ccccc23)NC(=O)[C@H](CCC(N)=O)NC(=O)[C@@H](N)CC(N)=O)CSC1(C)C)C(N)=O (stereo not given in full) (H-NQW[dA][ξThz(5,5-Me2)]GHLM-NH2)",> 25 µM (inactive),> 25 µM (inactive),> 25 µM (inactive),> 25 µM (inactive),> 25 µM (inactive),> 25 µM (inactive),> 25 µM (inactive),> 25 µM (inactive),> 25 µM (inactive),> 25 µM (inactive),> 25 µM (inactive),> 25 µM (inactive),> 25 µM (inactive),> 25 µM (inactive),> 25 µM (inactive),> 25 µM (inactive),> 25 µM (inactive),> 25 µM (inactive),
CCc1nc2ccc(/N=N/N(C)C)cc2[nH]1,,> 100 µM (inactive),> 100 µM (inactive),> 100 µM (inactive),> 100 µM (inactive),> 100 µM (inactive),> 100 µM (inactive),> 100 µM (inactive),> 100 µM (inactive),> 100 µM (inactive),> 100 µM (inactive),> 100 µM (inactive),> 100 µM (inactive),,> 100 µM (inactive),> 100 µM (inactive),> 100 µM (inactive),,> 100 µM (inactive)
NNC(=O)COc1nc(-c2cccs2)nc2ccc(I)cc12,18 µM (inactive),27.3 µM (inactive),18.4 µM (inactive),26.8 µM (inactive),19.8 µM (inactive),,18.2 µM (inactive),,22.5 µM (inactive),1.47 µM (inactive),21.4 µM (inactive),17.6 µM (inactive),28.4 µM (inactive),15.8 µM (inactive),22.7 µM (inactive),13.4 µM (inactive),25.5 µM (inactive),15.8 µM (inactive),15.3 µM (inactive)
CN(C)CCCNc1cnc2cc3ccccc3cc2n1,23.5 µM (inactive),26.2 µM (inactive),13.9 µM (inactive),18.3 µM (inactive),15.6 µM (inactive),19.2 µM (inactive),27 µM (inactive),16.4 µM (inactive),31.2 µM (inactive),,23.8 µM (inactive),22.4 µM (inactive),18.6 µM (inactive),21.3 µM (inactive),23.7 µM (inactive),36.1 µM (inactive),31 µM (inactive),61.1 µM (inactive),15.3 µM (inactive)
